Where two headings read alike, the source gives them in different places. *1 amine or outer side, *2 acyl side, *3 side chain or, on linkers, in order; H or OH if unused. Where a SMILES comes first, the peptide text is derived from it. Side-chain parts run from the residue outwards. [ ]: non-standard residue; d: D form. The star is where a group is joined. C20 diacid = O=C(O)CCCCCCCCCCCCCCCCCCC(=O)*; γGlu = O=C(O)[C@H](CCC(=O)[*:2])N[*:1]; AEEA = NCCOCCOCC(=O)O; Aib = CC(C)(N)C(=O)O
Assays:
[1] = biological target: T1, human GLP-2 receptor (Homo sapiens, UniProt O95838, D470N); assay: GLP-2 receptor potency assay (cAMP ALPHASCREEN, HEK293 cells stably expressing GLP-2 R); assay type: cell-based
T1 construct: expressed in transfected cells
T1 sequence (O95838 1-553 D470N): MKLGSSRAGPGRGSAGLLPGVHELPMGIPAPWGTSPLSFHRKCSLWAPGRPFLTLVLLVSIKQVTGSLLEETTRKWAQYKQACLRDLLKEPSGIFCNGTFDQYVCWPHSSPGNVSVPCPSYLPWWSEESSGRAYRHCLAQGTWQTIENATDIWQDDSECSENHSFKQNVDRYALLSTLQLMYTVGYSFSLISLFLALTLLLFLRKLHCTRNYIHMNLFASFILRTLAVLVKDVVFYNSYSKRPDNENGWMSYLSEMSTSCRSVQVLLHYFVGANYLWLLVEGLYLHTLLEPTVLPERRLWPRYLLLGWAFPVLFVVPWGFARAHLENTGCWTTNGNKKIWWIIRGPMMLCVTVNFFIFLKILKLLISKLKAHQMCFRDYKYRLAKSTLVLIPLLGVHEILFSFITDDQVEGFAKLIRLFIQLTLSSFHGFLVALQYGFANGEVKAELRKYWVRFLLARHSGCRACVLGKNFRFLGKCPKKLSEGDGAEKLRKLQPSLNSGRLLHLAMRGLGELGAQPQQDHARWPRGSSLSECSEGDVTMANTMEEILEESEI
Summary of the method: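 HEK293 clones stably transfected with the human GLP-2 receptor, selected with G418, were used. Intracellular cAMP was quantified by AlphaScreen. Responses were normalised to positive and vehicle controls, and EC50 and maximal response were taken from concentration-response curves.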

[2] = Solubility assessment (turbidity absorbance at 325 nm); assay type: physicochemical
Procedure: A stock solution of the test peptide (2 mg/ml; determined from the weighed amount of peptide) in demineralized water adjusted to pH 2.5 with HCl was prepared, and aliquots were diluted 1:1 in 100 mM acetate buffer (pH 4.0 and pH 5.0), 100 mM histidine buffer (pH 6.0 and pH 7.0) and 100 mM phosphate buffer (pH 6.0, pH 7.0 and pH 7.5), respectively, and loaded in a standard flat-bottom, non-sterile 96-well UV Microplate. The absorbance of samples (single samples, n=1) at 280 and 325 nm was measured in an absorbance-based plate reader, which was preheated to ambient temperature (typically 25° C.).

[3] = Chemical stability (RP-HPLC normalized purity after incubation at 40° C.); assay type: physicochemical; settings: 14-day incubation, 0.2 mg/ml, normalized purity (area-%); for pH 7 normalized stability: pH 7, 40° C.
Summary of the method: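 Peptide at 0.2 mg/ml final in water adjusted to pH 6, 7, 7.5 or 9, incubated at 40° C for 14 days. Purity measured as main-peak area-% by C18 RP-HPLC (acetonitrile/TFA/water gradient, UV 220 nm) and normalized to T=0 set at 100 for each pH.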

[4] = cAMP response, HEK293 cells expressing human GLP-2 R, read-out: EC50 GLP-2
[5] = 100 mM acetate buffer pH 4.0, ambient temperature, read-out: Solubility Acetate buffer pH 4
[6] = 100 mM acetate buffer pH 5.0, ambient temperature, read-out: Solubility Acetate buffer pH 5
[7] = 100 mM histidine buffer pH 6.0, ambient temperature, read-out: Solubility Histidine buffer pH 6
[8] = 100 mM histidine buffer pH 7.0, ambient temperature, read-out: Solubility Histidine buffer pH 7
[9] = 100 mM phosphate buffer pH 6.0, ambient temperature, read-out: Solubility Phosphate buffer pH 6
[10] = 100 mM phosphate buffer pH 7.0, ambient temperature, read-out: Solubility Phosphate buffer pH 7
[11] = 100 mM phosphate buffer pH 7.5, ambient temperature, read-out: Solubility Phosphate buffer pH 7.5

Structure (SMILES)	EC50 [1, 4] [nM]	solubility [2, 5] [µg/mL]	solubility [2, 6] [µg/mL]	solubility [2, 7] [µg/mL]	solubility [2, 8] [µg/mL]	solubility [2, 9] [µg/mL]	solubility [2, 10] [µg/mL]	solubility [2, 11] [µg/mL]	pH 7 normalized stability [3]	pH 6 normalized stability ([3]; pH 6, 40° C.)	EC50 [1] [nM]
CC[C@H](C)[C@H](NC(=O)[C@H](Cc1ccccc1)NC(=O)[C@H](CC(=O)O)NC(=O)[C@H](CCCNC(=N)N)NC(=O)[C@H](C)NC(=O)[C@H](C)NC(=O)[C@H](CCC(N)=O)NC(=O)[C@H](CCCCNC(=O)CC[C@H](NC(=O)CCCCCCCCCCCCCCCCC(=O)O)C(=O)O)NC(=O)[C@H](CC(=O)O)NC(=O)[C@H](CC(C)C)NC(=O)[C@@H](NC(=O)[C@@H](NC(=O)[C@H](C)NC(=O)[C@H](CC(C)C)NC(=O)[C@H](CCC(=O)O)NC(=O)[C@H](CO)NC(=O)[C@@H](NC(=O)[C@H](Cc1ccccc1)NC(=O)[C@@H](NC(=O)CNC(=O)[C@H](CCC(=O)O)NC(=O)C(C)(C)NC(=O)[C@@H](N)Cc1c[nH]cn1)[C@@H](C)O)[C@@H](C)O)[C@@H](C)O)[C@@H](C)CC)C(=O)N[C@@H](C)C(=O)N[C@@H](Cc1c[nH]c2ccccc12)C(=O)N[C@@H](CC(C)C)C(=O)N[C@H](C(=O)N[C@@H](CCC(=O)O)C(=O)N[C@@H](Cc1c[nH]cn1)C(=O)N[C@@H](CCCCN)C(=O)N[C@H](C(=O)N[C@H](C(=O)N[C@@H](CC(=O)O)C(=O)O)[C@@H](C)O)[C@@H](C)CC)[C@@H](C)CC [Compound 25] (HELM PEPTIDE1{H.[Aib].E.G.T.F.T.S.E.L.A.T.I.L.D.K.Q.A.A.R.D.F.I.A.W.L.I.E.H.K.I.T.D}|PEPTIDE2{[O=C(O)CCCCCCCCCCCCCCCCC(=O)[*:2]].[gGlu]}$PEPTIDE1,PEPTIDE2,16:R3-2:R2$$$V2.0)	0.33	< 1000	< 1000	≥ 1000	≥ 1000	≥ 1000	≥ 1000	≥ 1000	A (>90% normalised stability)	–	–
CC[C@H](C)[C@H](NC(=O)[C@H](Cc1ccccc1)NC(=O)[C@H](CC(=O)O)NC(=O)[C@H](CCCNC(=N)N)NC(=O)[C@H](C)NC(=O)[C@H](C)NC(=O)[C@H](CCC(N)=O)NC(=O)[C@H](CCCCNC(=O)CC[C@H](NC(=O)CCCCCCCCCCCCCCCCC(=O)O)C(=O)O)NC(=O)[C@H](CC(=O)O)NC(=O)[C@H](CC(C)C)NC(=O)[C@@H](NC(=O)[C@@H](NC(=O)[C@H](C)NC(=O)[C@H](CC(C)C)NC(=O)[C@H](CCC(=O)O)NC(=O)[C@H](CO)NC(=O)[C@H](CO)NC(=O)[C@H](Cc1ccccc1)NC(=O)[C@@H](NC(=O)CNC(=O)[C@H](CCC(=O)O)NC(=O)C(C)(C)NC(=O)[C@@H](N)Cc1c[nH]cn1)[C@@H](C)O)[C@@H](C)O)[C@@H](C)CC)C(=O)N[C@@H](C)C(=O)N[C@@H](Cc1c[nH]c2ccccc12)C(=O)N[C@@H](CC(C)C)C(=O)N[C@H](C(=O)N[C@@H](CCC(N)=O)C(=O)N[C@@H](Cc1c[nH]cn1)C(=O)N[C@@H](CCCCN)C(=O)N[C@H](C(=O)N[C@H](C(=O)N[C@@H](CC(=O)O)C(=O)O)[C@@H](C)O)[C@@H](C)CC)[C@@H](C)CC [Compound 17] (HELM PEPTIDE1{H.[Aib].E.G.T.F.S.S.E.L.A.T.I.L.D.K.Q.A.A.R.D.F.I.A.W.L.I.Q.H.K.I.T.D}|PEPTIDE2{[O=C(O)CCCCCCCCCCCCCCCCC(=O)[*:2]].[gGlu]}$PEPTIDE1,PEPTIDE2,16:R3-2:R2$$$V2.0)	0.33	< 1000	< 1000	≥ 1000	≥ 1000	≥ 1000	≥ 1000	≥ 1000	–	–	–
CC[C@H](C)[C@H](NC(=O)[C@H](Cc1ccccc1)NC(=O)[C@H](CC(=O)O)NC(=O)[C@H](CCCNC(=N)N)NC(=O)[C@H](C)NC(=O)[C@H](C)NC(=O)[C@H](CCCCN)NC(=O)[C@H](CCCCNC(=O)CC[C@H](NC(=O)CCCCCCCCCCCCCCCCC(=O)O)C(=O)O)NC(=O)[C@H](CC(=O)O)NC(=O)[C@H](CC(C)C)NC(=O)[C@@H](NC(=O)[C@@H](NC(=O)[C@H](C)NC(=O)[C@H](CC(C)C)NC(=O)[C@H](CCC(=O)O)NC(=O)[C@H](CO)NC(=O)[C@H](CO)NC(=O)[C@H](Cc1ccccc1)NC(=O)[C@@H](NC(=O)CNC(=O)[C@H](CCC(=O)O)NC(=O)C(C)(C)NC(=O)[C@@H](N)Cc1c[nH]cn1)[C@@H](C)O)[C@@H](C)O)[C@@H](C)CC)C(=O)N[C@@H](C)C(=O)N[C@@H](Cc1c[nH]c2ccccc12)C(=O)N[C@@H](CC(C)C)C(=O)N[C@H](C(=O)N[C@@H](CCC(=O)O)C(=O)N[C@@H](Cc1c[nH]cn1)C(=O)N[C@@H](CCCCN)C(=O)N[C@H](C(=O)N[C@H](C(=O)N[C@@H](CC(=O)O)C(=O)O)[C@@H](C)O)[C@@H](C)CC)[C@@H](C)CC [Compound 4] (HELM PEPTIDE1{H.[Aib].E.G.T.F.S.S.E.L.A.T.I.L.D.K.K.A.A.R.D.F.I.A.W.L.I.E.H.K.I.T.D}|PEPTIDE2{[O=C(O)CCCCCCCCCCCCCCCCC(=O)[*:2]].[gGlu]}$PEPTIDE1,PEPTIDE2,16:R3-2:R2$$$V2.0)	–	–	–	–	–	–	–	–	–	–	0.087

The next lines start with results.

EC50 [1, 4] [nM]	solubility [2, 5] [µg/mL]	solubility [2, 6] [µg/mL]	solubility [2, 7] [µg/mL]	solubility [2, 8] [µg/mL]	solubility [2, 9] [µg/mL]	solubility [2, 10] [µg/mL]	solubility [2, 11] [µg/mL]	pH 7 normalized stability [3]	pH 6 normalized stability ([3]; pH 6, 40° C.)	Structure (SMILES)	EC50 [1] [nM]
0.17	< 1000	< 1000	≥ 1000	≥ 1000	≥ 1000	≥ 1000	≥ 1000	A (>90% normalised stability)	B (>80% stability)	CC[C@H](C)[C@H](NC(=O)[C@H](Cc1ccccc1)NC(=O)[C@H](CC(=O)O)NC(=O)[C@H](CCCNC(=N)N)NC(=O)[C@H](C)NC(=O)[C@H](C)NC(=O)[C@H](CCC(N)=O)NC(=O)[C@H](CCCCNC(=O)CC[C@H](NC(=O)CCCCCCCCCCCCCCCCC(=O)O)C(=O)O)NC(=O)[C@H](CC(=O)O)NC(=O)[C@H](CC(C)C)NC(=O)[C@@H](NC(=O)[C@@H](NC(=O)[C@H](C)NC(=O)[C@H](CC(C)C)NC(=O)[C@H](CCC(=O)O)NC(=O)[C@H](CO)NC(=O)[C@@H](NC(=O)[C@H](Cc1ccccc1)NC(=O)[C@H](CO)NC(=O)CNC(=O)[C@H](CCC(=O)O)NC(=O)C(C)(C)NC(=O)[C@@H](N)Cc1c[nH]cn1)[C@@H](C)O)[C@@H](C)O)[C@@H](C)CC)C(=O)N[C@@H](C)C(=O)N[C@@H](Cc1c[nH]c2ccccc12)C(=O)N[C@@H](CC(C)C)C(=O)N[C@H](C(=O)N[C@@H](CCC(=O)O)C(=O)N[C@@H](Cc1c[nH]cn1)C(=O)N[C@@H](CCCCN)C(=O)N[C@H](C(=O)N[C@H](C(=O)N[C@@H](CC(=O)O)C(=O)O)[C@@H](C)O)[C@@H](C)CC)[C@@H](C)CC [Compound 24] (HELM PEPTIDE1{H.[Aib].E.G.S.F.T.S.E.L.A.T.I.L.D.K.Q.A.A.R.D.F.I.A.W.L.I.E.H.K.I.T.D}|PEPTIDE2{[O=C(O)CCCCCCCCCCCCCCCCC(=O)[*:2]].[gGlu]}$PEPTIDE1,PEPTIDE2,16:R3-2:R2$$$V2.0)	–
0.33	–	–	–	–	–	–	–	A (>90% normalised stability)	–	CC[C@H](C)[C@H](NC(=O)[C@H](Cc1ccccc1)NC(=O)[C@H](CC(=O)O)NC(=O)[C@H](CCCNC(=N)N)NC(=O)[C@H](C)NC(=O)[C@H](C)NC(=O)[C@H](CCC(N)=O)NC(=O)[C@H](CCC(=O)O)NC(=O)[C@H](CC(=O)O)NC(=O)[C@H](CC(C)C)NC(=O)[C@@H](NC(=O)[C@@H](NC(=O)[C@H](C)NC(=O)[C@H](CCCCNC(=O)COCCOCCNC(=O)COCCOCCNC(=O)CC[C@H](NC(=O)CCCCCCCCCCCCCCCCCCC(=O)O)C(=O)O)NC(=O)[C@H](CCC(=O)O)NC(=O)[C@H](CO)NC(=O)[C@@H](NC(=O)[C@H](Cc1ccccc1)NC(=O)[C@H](CO)NC(=O)CNC(=O)[C@H](CCC(=O)O)NC(=O)C(C)(C)NC(=O)[C@@H](N)Cc1c[nH]cn1)[C@@H](C)O)[C@@H](C)O)[C@@H](C)CC)C(=O)N[C@@H](C)C(=O)N[C@@H](Cc1c[nH]c2ccccc12)C(=O)N[C@@H](CC(C)C)C(=O)N[C@H](C(=O)N[C@@H](CCC(=O)O)C(=O)N[C@@H](Cc1c[nH]cn1)C(=O)N[C@@H](CCCCN)C(=O)N[C@H](C(=O)N[C@H](C(=O)N[C@@H](CC(=O)O)C(=O)O)[C@@H](C)O)[C@@H](C)CC)[C@@H](C)CC [Compound 42] (H-H[Aib]EGSFTSEK([AEEA-AEEA-γGlu-C20 diacid])ATILDEQAARDFIAWLIEHKITD-OH)	–

— patent publication US11395847B2, “Acylated GLP-1/GLP-2 dual agonists” (Zealand Pharma A/S, priority 2016, dated 2022)
